Patent US20260053931A1, “MDM2 TARGETING PROTACS” (THE WISTAR INSTITUTE OF ANATOMY AND BIOLOGY, priority 2023, published 2026)

What was measured:
Mdm2 [1] = molecular target: T1, Mdm2 (Homo sapiens, UniProt Q00987); assay: Mdm2 HTRF binding assay (Table 2); details: read-out: Mdm2 HTRF IC50
Source text: An HTRF binding assay was developed using a biotinylated peptide containing the Mdm2-binding domain of p53 and a recombinant GST-tagged N-terminus of Mdm2 containing the p53-binding domain. HTRF is a proximity-based fluorescence energy transfer (FRET) assay that takes advantage of the unique time-resolved fluorescence of the lanthanide chelates, such as terbium and europium. HTRF IC50 values are provided for all key compounds (FIG. 13C, FIG. 19B, and Table 2).
Target sequence in this assay (Q00987 26-109 limits assumed): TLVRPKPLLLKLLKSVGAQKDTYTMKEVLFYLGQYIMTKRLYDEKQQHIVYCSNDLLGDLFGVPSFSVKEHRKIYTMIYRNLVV

mut p53 MDA-MD-231 cells = assay: Live cell count with CellTag700 Stain in ICW format
Method: Cells are seeded in 96 half area well plates (black clear bottom) and cultured overnight. Then they are treated with compounds, fixed with 4% paraformaldehyde for 20 minutes, and permeabilized in 0.1% Triton. They are then treated with the primary antibody and secondary antibody conjugated to IRDye800CW or treated with CellTag 700 Stain. The plates are then scanned on the OdysseyCLX and the data processed to provide a dose response curve.
Since genetic deletion of Mdm2 induces p73 and induces apoptosis in p53 mutant and deficient cancer cells, YX-02-030 and YX-02-228 were evaluated for their effect on cell viability. First, the CellTag700 Stain was utilized to count the number of live cells in the ICW format.

MCF7 = assay: Cytotoxicity to wild type p53 cells; format: cell-based; details: Homo sapiens
VHL = VHL (Homo sapiens, UniProt P40337); assay: HTRF binding assay for VHL (Table 2)
Source text: (§1) Biochemical assays in 384-well format have established to assess the binding of newly synthesized PROTACs to the appropriate E3 ligase using HTRF technology. In these assays an anti-HIS antibody conjugated to terbium was used as the donor fluor, and either a Cy5 labeled small molecule probe, or a biotinylated peptide that is bound to a streptavidin acceptor.

Mdm2 [2] = molecular target: T1, Mdm2; assay: In-Cell Western, mut p53 MDA-MB-231 cell line; format: cell-based; parameters: endogenous in cells; host or cells: MCF7 (A8); MDA-MB-231 (A9); details: mutant p53 MDA-MB-231
Method: (§2) Cells were seeded at decreasing cell number from 15K cells to 2K cells. The Mdm2 primary antibody was tested at 1:200 and 1:300 dilution. The secondary antibody conjugated to IRDye800CW was used with 1:800 dilution, and CellTag 700 Stain was used at 1:1000 dilution as manufacture recommended. The linearity of cell number versus signal was generated with Prism. The signal over background ratio was also calculated.
(§3) The potential PROTACs were evaluated in the wt p53 MCF7 cell line and in the mut p53 MDA-MB-231 cell line. Importantly these were compared to MD-224, which was recently reported to potently degrade Mdm2 in RS4; 11 leukemia cells (Li et al., 2019). Assay linearity was performed confirming a strong 4-fold signal to noise in the assay. A series of bi-functional molecules were then treated and evaluated for protein level in the assay over time from 2 h-48 h. […] In this wt p53 cancer cell line the stabilization of p53 (FIG. 15B), and subsequent p53-mediated transcriptional upregulation of Mdm2 make it difficult to observe degradation. […] These compounds were evaluated in the mutant p53 cancer cells. […] In this cell line, it takes approximately 16-24 h to detect the degradation. […] The difference in the molecules is that MD-224 utilizes a CRBN recruiting ligand.
Target sequence in this assay (Q00987 whole entry, the tested form may be a part): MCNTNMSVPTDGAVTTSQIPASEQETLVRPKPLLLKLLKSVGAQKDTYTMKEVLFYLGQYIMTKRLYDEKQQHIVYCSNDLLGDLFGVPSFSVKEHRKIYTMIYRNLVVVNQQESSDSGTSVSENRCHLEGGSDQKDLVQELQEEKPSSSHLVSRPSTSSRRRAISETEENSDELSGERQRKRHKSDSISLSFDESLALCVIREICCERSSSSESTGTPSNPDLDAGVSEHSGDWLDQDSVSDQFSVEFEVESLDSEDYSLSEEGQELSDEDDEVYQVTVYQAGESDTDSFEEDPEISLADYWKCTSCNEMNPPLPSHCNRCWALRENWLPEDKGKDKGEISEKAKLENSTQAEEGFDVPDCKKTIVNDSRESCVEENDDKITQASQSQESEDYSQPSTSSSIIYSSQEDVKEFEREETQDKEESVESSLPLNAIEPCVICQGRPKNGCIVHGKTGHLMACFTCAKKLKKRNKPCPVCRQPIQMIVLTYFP

[3] = molecular target: T2, human cereblon (CRBN) complex (Homo sapiens, UniProt Q96SW2); assay: HTRF binding assay for Cereblon (Table 2)
T2 construct: purchased R & D systems
Source text: as §1
Cereblon: Recombinant human cereblon (CRBN) complex, including CUL4A, RBX1, DDB1 and CRBN is purchased from R & D systems. This four-member protein complex has an N-terminal HIS tag on the CUL4A subunit. The CRBN complex is diluted in assay buffer containing anti-HIS-Tb Cryptate Gold (CisBio) and is added to low volume 384-well plates. Test compounds in 100% DMSO are added to the plates followed by the Cy5-labeled lenolidamide probe. After 1 hour the HTRF signal is measured on the Envision. Data are normalized to % inhibition. The typical signal-to-noise is 5:1. Bi-functional molecules containing the Cereblon ligands are tested in TABLE 2 (see YX-02-041).

[4] = test system: Mdm2-/-p53-/- sarcoma cells; assay: Murine Mdm2-/-p53-/- sarcoma cells, MTT; format: cell-based, mouse; details: MTT assay, 48 hrs
Source text: A-B. Murine Mdm2+/+p53-null sarcoma cells treated with Mdm2 PROTAC (YX-02-030), control YX-02-023 (−), or vehicle (DMSO). A. Western blots after 24 hrs (cleaved caspase 3, CC3. Mdm2^−/−p53^−/− fibroblasts were a control for the Western blot). B. Dose response curve (MTT assay, 48 hrs). C. Dose response curves of murine Mdm2^−/−p53^−/− sarcoma cells treated with Mdm2 PROTAC (YX-02-030), negative controls (−), a Bcl2/Bclx/Bclw inhibitor (+), or vehicle control (MTT assay, quadruplicate, 48 hrs- MTT assay, B-C graphed relative to DMSO).

Mdm2 [5] = molecular target: T1, Mdm2; assay: In-Cell Western, wt p53 MCF7 cell line; format: cell-based; parameters: endogenous in cells; host or cells: MCF7 (A8); MDA-MB-231 (A9); details: wt p53 MCF7, 2 h-48 h
Method: as §2, §3
Target sequence in this assay (Q00987 whole entry, the tested form may be a part): as above

VHL complex = molecular target: T3, VHL complex (Homo sapiens, UniProt P40337); assay: Inhibition of HIF-1α peptide binding to the VHL complex using HTRF (Table 3); details: mean ± S.E.M. of three replications; read-out: VHL-HIFa peptide IC50
T3 construct: purchased R&D systems E3-655-025
Method: Assays contained 2 nM of HIS-VHL complex (R&D systems, E3-655-025), 2 nM of biotin-hydroxyproline-HIF1α peptide (Biotin-[…] (SEQ ID NO: 2), X=hydroxyproline), 0.3 nM anti-HIS-Tb HTRF donor antibody and 4 nM streptavidin-d2 HTRF acceptor (PerkinElmer) in a final volume of 10 μL of 25 mM HEPES, pH 7.4, 150 mM NaCl, 5 mM DTT, 0.005% Tween20 in white low volume 384-well plates. Both HIS-VHL complex and biotin-HIF1α peptide were pre-incubated with their respective HTRF antibodies for 15 min. Test compounds were solubilized at 10 mM in DMSO and concentration series was added to the assay plate using the Echo 650 acoustic liquid handling system by direct dilution. The final amount of DMSO added to the assay was 100 nL […]. Compounds were pre-incubated with HIS-VHL complex before the addition of the biotin-HIF1α peptide. After a 2 hr incubation, the HTRF signal was measured using the ClarioStar plate reader (BMG Labtech). […] IC50 values were determined from nonlinear regression fits of a data to a four parameter dose-response equation using XLFit (IDBS). Data are the means±S.E.M. of three replications. The data is described in Table 3 above.

T2 sequence (Q96SW2 whole entry): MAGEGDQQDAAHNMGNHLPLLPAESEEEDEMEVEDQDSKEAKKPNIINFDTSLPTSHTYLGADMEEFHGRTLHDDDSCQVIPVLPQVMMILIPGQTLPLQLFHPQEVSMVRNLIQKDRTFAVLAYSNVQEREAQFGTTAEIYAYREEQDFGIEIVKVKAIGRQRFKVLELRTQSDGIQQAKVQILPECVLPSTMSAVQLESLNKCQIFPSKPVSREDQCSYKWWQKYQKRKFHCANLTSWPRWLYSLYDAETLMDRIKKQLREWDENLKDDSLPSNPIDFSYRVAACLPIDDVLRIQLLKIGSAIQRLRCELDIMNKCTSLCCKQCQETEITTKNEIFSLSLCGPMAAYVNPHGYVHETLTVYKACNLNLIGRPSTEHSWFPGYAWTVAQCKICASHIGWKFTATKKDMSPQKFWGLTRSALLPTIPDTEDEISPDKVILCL
T2 sequence (Q16531 whole entry partner): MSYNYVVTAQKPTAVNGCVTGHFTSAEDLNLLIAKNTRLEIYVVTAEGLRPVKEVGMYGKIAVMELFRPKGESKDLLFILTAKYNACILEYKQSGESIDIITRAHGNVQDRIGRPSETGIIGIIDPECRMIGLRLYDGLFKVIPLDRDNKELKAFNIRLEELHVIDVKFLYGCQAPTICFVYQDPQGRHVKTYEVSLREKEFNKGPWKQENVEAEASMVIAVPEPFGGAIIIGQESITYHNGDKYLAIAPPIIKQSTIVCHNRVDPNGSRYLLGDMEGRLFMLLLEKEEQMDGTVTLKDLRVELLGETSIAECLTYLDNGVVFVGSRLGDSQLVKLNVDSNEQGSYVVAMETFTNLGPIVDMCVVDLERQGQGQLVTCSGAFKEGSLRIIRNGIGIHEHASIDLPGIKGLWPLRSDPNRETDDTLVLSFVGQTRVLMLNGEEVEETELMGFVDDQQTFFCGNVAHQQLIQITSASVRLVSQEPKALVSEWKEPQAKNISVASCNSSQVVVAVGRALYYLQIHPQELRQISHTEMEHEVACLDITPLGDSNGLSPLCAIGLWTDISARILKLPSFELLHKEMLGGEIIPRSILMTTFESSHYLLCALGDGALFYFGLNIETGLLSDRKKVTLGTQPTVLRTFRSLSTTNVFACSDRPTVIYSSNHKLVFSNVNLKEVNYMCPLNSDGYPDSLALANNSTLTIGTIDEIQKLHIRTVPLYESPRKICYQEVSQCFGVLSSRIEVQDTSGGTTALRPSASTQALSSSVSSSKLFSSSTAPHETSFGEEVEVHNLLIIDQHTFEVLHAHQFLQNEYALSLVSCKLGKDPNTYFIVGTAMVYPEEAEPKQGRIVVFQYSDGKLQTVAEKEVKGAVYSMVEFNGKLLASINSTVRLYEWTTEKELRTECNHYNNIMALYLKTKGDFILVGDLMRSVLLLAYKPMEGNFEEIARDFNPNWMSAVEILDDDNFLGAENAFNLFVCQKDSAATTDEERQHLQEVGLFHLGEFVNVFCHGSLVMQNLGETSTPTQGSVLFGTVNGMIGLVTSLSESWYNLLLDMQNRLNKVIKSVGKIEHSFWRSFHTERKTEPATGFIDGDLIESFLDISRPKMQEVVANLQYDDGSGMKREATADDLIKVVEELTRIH
T2 sequence (Q13619 whole entry partner): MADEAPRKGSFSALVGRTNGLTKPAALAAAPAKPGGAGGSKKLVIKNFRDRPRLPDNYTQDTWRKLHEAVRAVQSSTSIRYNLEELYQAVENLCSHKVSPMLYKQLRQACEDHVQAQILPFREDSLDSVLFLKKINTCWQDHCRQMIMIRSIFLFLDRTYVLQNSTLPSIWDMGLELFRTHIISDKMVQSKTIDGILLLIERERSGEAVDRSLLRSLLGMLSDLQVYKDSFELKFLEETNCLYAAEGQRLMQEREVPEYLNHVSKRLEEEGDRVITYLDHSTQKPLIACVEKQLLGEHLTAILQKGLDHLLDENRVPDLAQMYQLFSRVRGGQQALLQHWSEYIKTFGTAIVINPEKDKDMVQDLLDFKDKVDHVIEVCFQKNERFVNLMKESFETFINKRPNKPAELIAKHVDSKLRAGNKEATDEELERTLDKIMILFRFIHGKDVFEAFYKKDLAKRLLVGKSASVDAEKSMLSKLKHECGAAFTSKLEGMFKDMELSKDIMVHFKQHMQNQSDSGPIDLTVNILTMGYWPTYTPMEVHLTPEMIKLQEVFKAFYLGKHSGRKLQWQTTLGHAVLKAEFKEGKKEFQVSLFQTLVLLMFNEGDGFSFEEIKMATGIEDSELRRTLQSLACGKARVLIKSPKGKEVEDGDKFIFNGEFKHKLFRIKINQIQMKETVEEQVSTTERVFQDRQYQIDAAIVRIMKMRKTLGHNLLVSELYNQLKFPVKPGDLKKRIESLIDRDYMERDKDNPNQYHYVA
T2 sequence (P62877 whole entry partner): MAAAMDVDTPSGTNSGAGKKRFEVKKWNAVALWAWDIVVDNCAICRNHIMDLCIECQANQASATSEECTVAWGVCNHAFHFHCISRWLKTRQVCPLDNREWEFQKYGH
VHL, sequence (P40337 whole entry): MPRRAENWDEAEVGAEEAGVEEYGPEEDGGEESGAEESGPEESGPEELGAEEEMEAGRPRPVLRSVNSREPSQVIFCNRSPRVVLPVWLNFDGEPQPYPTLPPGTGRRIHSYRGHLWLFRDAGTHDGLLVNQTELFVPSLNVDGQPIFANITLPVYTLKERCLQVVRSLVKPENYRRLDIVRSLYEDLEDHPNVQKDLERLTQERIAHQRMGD
VHL, sequence (Q15370 whole entry partner): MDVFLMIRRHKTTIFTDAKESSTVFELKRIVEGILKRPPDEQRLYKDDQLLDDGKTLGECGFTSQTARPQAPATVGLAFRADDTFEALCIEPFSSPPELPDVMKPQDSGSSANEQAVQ
VHL, sequence (Q15369 whole entry partner): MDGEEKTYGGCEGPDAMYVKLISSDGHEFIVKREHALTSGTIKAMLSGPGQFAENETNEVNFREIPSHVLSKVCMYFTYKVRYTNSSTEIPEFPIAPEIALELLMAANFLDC
T3 sequence (P40337 whole entry): as the sequence (P40337 whole entry) above
T3 sequence (Q15370 whole entry partner): as the sequence (Q15370 whole entry partner) above
T3 sequence (Q15369 whole entry partner): as the sequence (Q15369 whole entry partner) above
T3 sequence (Q13617 whole entry partner): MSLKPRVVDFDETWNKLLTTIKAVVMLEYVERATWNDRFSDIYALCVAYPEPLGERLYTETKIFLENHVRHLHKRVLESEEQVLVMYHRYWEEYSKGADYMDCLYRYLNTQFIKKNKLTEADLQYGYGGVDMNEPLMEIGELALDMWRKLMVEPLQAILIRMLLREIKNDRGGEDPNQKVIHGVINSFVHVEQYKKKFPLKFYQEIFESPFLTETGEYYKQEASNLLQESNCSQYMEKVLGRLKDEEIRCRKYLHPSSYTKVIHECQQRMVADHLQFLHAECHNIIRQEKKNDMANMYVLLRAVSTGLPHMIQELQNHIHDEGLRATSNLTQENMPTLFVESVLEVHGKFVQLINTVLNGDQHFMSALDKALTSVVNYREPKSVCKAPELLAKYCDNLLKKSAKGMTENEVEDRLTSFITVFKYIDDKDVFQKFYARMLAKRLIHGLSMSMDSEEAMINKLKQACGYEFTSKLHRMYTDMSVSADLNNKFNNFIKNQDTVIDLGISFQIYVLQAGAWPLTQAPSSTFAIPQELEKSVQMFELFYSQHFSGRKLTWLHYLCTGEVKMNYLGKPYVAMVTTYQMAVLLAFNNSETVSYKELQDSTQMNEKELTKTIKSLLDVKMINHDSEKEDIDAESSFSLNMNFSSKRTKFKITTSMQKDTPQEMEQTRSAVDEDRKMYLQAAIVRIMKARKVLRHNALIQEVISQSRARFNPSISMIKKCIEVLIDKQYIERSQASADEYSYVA
T3 sequence (P62877 whole entry partner): as the sequence (P62877 whole entry partner) above

**Q.** How did the IC50 (Mdm2 [1]) turn out when CCOc1cc(C(C)(C)C)ccc1C1=N[C@@](C)(c2ccc(Cl)cc2)[C@@](C)(c2ccc(Cl)cc2)N1C(=O)N1CCN(CC(=O)NCCCCNC(=O)COc2cccc3c2C(=O)N(C2CCC(=O)NC2=O)C3=O)CC1 (mixture of isomers) [YX-02-041, 2-(4-((4S,5R)-2-(4-(tert-butyl)-2-ethoxyphenyl)-4,5-bis(4-chlorophenyl)-4,5-dimethyl-4,5-dihydro-1H-imidazole-1-carbonyl)piperazin-1-yl)-N-(4-(2-((2-(2,6-dioxopiperidin-3-yl)-1,3-dioxoisoindolin-4-yl)oxy)acetamido)butyl)acetamide] was run?
**A.** Its IC50 is 0.003 µM.

**Q.** And the “cytotoxicity to mutant p53 cells” value (mut p53 MDA-MD-231 cells; other studies, compared with MCF7)?
**A.** The value was “much less cytotoxic”.

**Q.** And the IC50 (MCF7)?
**A.** Its IC50 is ~20 µM.

**Q.** What about the IC50 (VHL) of the same compound?
**A.** The IC50 was > 10 µM.

**Q.** What about the Mdm2 degradation (Mdm2 [2]) of the same compound?
**A.** The Mdm2 degradation was “did not provide robust degradation”.

**Q.** With CCOc1cc(C(C)(C)C)ccc1C1=NC(C)(c2ccc(Cl)cc2)C(C)(c2ccc(Cl)cc2)N1C(=O)N1CCN(CC(=O)N[C@H](C(=O)N2C[C@H](O)C[C@H]2C(=O)NCc2ccc(-c3scnc3C)cc2)C(C)(C)C)CC1 (stereo in doubt) [YX-02-230, 1-(2-(2-(4-((4S,5R)-2-(4-(tert-butyl)-2-ethoxyphenyl)-4,5-bis(4-chlorophenyl)-4,5-dimethyl-4,5-dihydro-1H-imidazole-1-carbonyl)piperazin-1-yl)acetamido)-3,3-dimethylbutanoyl)-4-hydroxy-N-(4-(4-methylthiazol-5-yl)benzyl)pyrrolidine-2-carboxamide] as the compound, how does the IC50 (Mdm2 [1]) read?
**A.** Its IC50 is 0.018 µM.

**Q.** What about the IC50 [3] of the same compound?
**A.** Its IC50 is > 10 µM.

**Q.** How did the “response of Mdm2-/-p53-/- sarcoma cells” value [4] turn out when CC1(C)CCC(c2ccc(Cl)cc2)=C(CN2CCN(c3ccc(C(=O)NS(=O)(=O)c4ccc(N[C@H](CCN5CCOCC5)CSc5ccccc5)c(S(=O)(=O)C(F)(F)F)c4)cc3)CC2)C1 [ABT-263/Navitoclax, Navitoclax, reference compound] was run?
**A.** The value was “responsive”.

**Q.** How did the Mdm2 protein level (Mdm2 [5]) turn out when O=C1CCC(N2Cc3c(C#CCCCNC(=O)c4ccc(NC(=O)[C@@H]5NC6(CCCCC6)[C@@]6(C(=O)Nc7cc(Cl)ccc76)[C@H]5c5cccc(Cl)c5F)cc4)cccc3C2=O)C(=O)N1 (stereo partly drawn) [MD-224, reference compound] was run?
**A.** The Mdm2 protein level was “modest degradation”.

**Q.** And the “cytotoxic effect, number of live cells” value (mut p53 MDA-MD-231 cells; after 24 h and 48 h treatment)?
**A.** The value was “no cytotoxic effect”.

**Q.** What about the Mdm2 degradation (Mdm2 [2]) of the same compound?
**A.** The Mdm2 degradation was “did not reduce Mdm2 protein level”.

**Q.** Which IC50 (VHL complex) does the source give for COc1ccc(C2=N[C@@H](c3ccc(Cl)cc3)[C@@H](c3ccc(Cl)cc3)N2C(=O)N2CCNC(=O)C2)c(OC(C)C)c1 [Nutlin-3, reference compound] here?
**A.** The IC50 was > 10 µM.
